Assays:
BMI1 [1] = experiment: Western blot of BMI1 and H2AUb in SCC23 and SCC1 cells; type: cell-based, human
Method: Human SCC23 and SCC1 cells were grown in DMEM containing 10% FBS and antibiotics (streptomycin and penicillin) at 37° C. in a 5% CO2 atmosphere. To generate lentiviruses, scramble control (shCtrl, Addgene, Cat #1864; see Sarbassov et al Science 2005 Feb. 18; 307(5712):1098-101) and BMI1 specific shRNA lentiviral plasmids (shBmi1, Sigma-Aldrich, Cat #TRCN0000020156, comprising […], SEQ ID NO:35) were transfected into HEK293T cells with two helper plasmids psPAX2 (Addgene, Cat #12260) and pMD2.G (Addgene, Cat #12259). Viral supernatant was harvested 72 h after transfection and passed through a 0.45 μm filter to remove cell debris and live cells. Collected lentiviruses were used directly to infect cells with the addition of polybrene (Sigma-Aldrich, Cat #H9268), or frozen at −80° C. for later use. […]
(§1) Cells were lysed using the radioimmunoprecipitation assay (RIPA) buffer (Sigma-Aldrich, Cat #R0278) added with a cocktail of protease inhibitors (Thermo Fisher Scientific, Cat ##78430) and phosphatase inhibitors (Sigma-Aldrich, Cat #4906845001). […] The signals were detected using the Clarity Western ECL kit (Bio-Rad, Cat #1705060). […] After treatment, supernatants were collected, and the protein levels of CCL5, CXCL9, CXCL10 and CXCL11 were measured with ELISA (R&D Systems, Cat #DRN00B, DCX900, DIP100, DCX110) according to the manufacturer's instructions.

BMI1 [2] = experiment: BMI1 expression in HNSCC tumors by immunostaining and Western blot; type: in vivo, mouse; conditions: immunostaining and Western blot of HNSCC tumors
Method: as §1, with “#4906845001). Protein extracts were resolved on a 10% or 15% SDS polyacrylamide gel and then transferred to a polyvinylidene difluoride membrane. Membranes were blocked with 5% milk for 1 h and incubated with primary antibodies overnight at 4° C.” for “#4906845001).”

CD8+ T cells = experiment: Immunostaining of CD8+ T cells in HNSCC; type: in vivo, mouse; conditions: 4NQO-induced HNSCC, treated 4 weeks
Method: (§2) The immunocomplexes were detected and visualized using related secondary antibodies conjugated with Cy2 or Cy3 (Jackson ImmunoResearch Laboratories). […] At least three sections from each HNSCC lesions were immunostained and analyzed. Tumor cells (>150) and CD8+, Ac-casp3+ and Tomato^+ cells of these tumor cell areas were counted manually in each section. The percentage of CD8+, Ac-casp3^+ and Tomato^+ cells were calculated by dividing those cells with tumor cells and averaged from the sections.

BMI-1 = conditions: HEK293T cell line; cited from earlier work
SOX2+ CSCs = type: in vivo, mouse; conditions: only strongly stained cells counted
HNSCC tumor cells = experiment: Anti-active caspase-3 (Ac-casp3) immunostaining of apoptosis in HNSCC; type: in vivo, mouse; conditions: 4NQO-induced HNSCC, treated 4 weeks
Method: as §2

B16 melanoma = type: in vivo, mouse; conditions: B16 tumors in immunocompetent mice
Method: C57/6J mice were injected in the flank subcutaneously with B16 melanoma cells (250,000 cells per site). Tumors were measured every 3 days once palpable (long diameter and short diameter) with a caliper. Tumor volume was determined using the volume formula for an ellipsoid: ½×D×d^2 where D is the longer diameter and d is the shorter diameter. Mice were sacrificed when tumors reached 1000 mm^3 or upon ulceration/bleeding.

[3] = tested on: promoters of CCL5, CXCL9, CXCL10 and CXCL11; experiment: ChIP-qPCR on chemokine promoters; type: cell-based, human; conditions: SCC23 cells
Method: ChIP-qPCR assays were performed as previously described (Ding et al, 2013). Briefly, SCC cells were sequentially treated with dimethyl 3,3′-dithiobispropionimidate-HCl (DTBP; Cat #20665, Thermo Fisher Scientific) solution and formaldehyde, and harvested with a cell scraper. The cell pellet was lysed with ChIP lysis buffer and sonicated to generate 200-500 bp DNA fragments with a sonicator. The fragmented chromatins were immunoprecipitated with anti-BMI1 (Cell Signaling Technology, Cat #6964), anti-Ubiquityl-Histone H2A (Lys119) (Cell Signaling Technology, Cat #8240) overnight at 4° C. The precipitated DNA-chromatin products were purified with ChIP DNA clean & concentrator kit (Cat #D5205, Zymo Research) and the DNA levels were quantified by qPCR. Data is presented as the percentage of input DNA.

pH2A.X = experiment: DNA damage in SCC23 and SCC1 cells (pH2A.X, alkaline comet assay); type: cell-based, human
Method: Cells were lysed using the radioimmunoprecipitation assay (RIPA) buffer (Sigma-Aldrich, Cat #R0278) added with a cocktail of protease inhibitors (Thermo Fisher Scientific, Cat ##78430) and phosphatase inhibitors (Sigma-Aldrich, Cat #4906845001). Protein extracts were resolved on a 10% or 15% SDS polyacrylamide gel and then transferred to a polyvinylidene difluoride membrane. Membranes were blocked with 5% milk for 1 h and incubated with primary antibodies overnight at 4° C. Primary antibodies used in this study were: anti-phospho-STING (Ser366) (1:1,000; Cell Signaling Technology, Cat #19781), anti-STING (1:1,000; Cell Signaling Technology, Cat #13647), anti-phospho-TBK1 (Ser172) (1:1,000; Cell Signaling Technology, Cat #5483), anti-TBK1 (1:1,000; Cell Signaling Technology, Cat #3504), anti-phospho-IRF3 (Ser396) (1:1,000; Cell Signaling Technology, Cat #29047), anti-IRF3 (1:1,000; Cell Signaling Technology, Cat #4302), anti-BMI1 (1:1,000; Cell Signaling Technology, Cat #6964), anti-Ubiquityl-Histone H2A (Lys119) (1:1000, Cell Signaling Technology, Cat #8240), anti-phospho Histone H2A.X (Ser139) (1:1000; Cell Signaling Technology, Cat #9718), and anti-GAPDH (1:1000; Cell Signaling Technology, Cat #5174), anti-Histone H3 (1:2,000; Cell Signaling Technology, Cat #4499). The signals were detected using the Clarity Western ECL kit (Bio-Rad, Cat #1705060). To measure the protein levels of CCL5, CXCL9, CXCL10 and CXCL11, cells were treated with PTC209 or shBMI1 knockdown for 48 hr. After treatment, supernatants were collected, and the protein levels of CCL5, CXCL9, CXCL10 and CXCL11 were measured with ELISA (R&D Systems, Cat #DRN00B, DCX900, DIP100, DCX110) according to the manufacturer's instructions.
Single cell gel electrophoresis comet assays were performed using the SCGE assay Kit (Enzo Life Sciences, Cat #ADI-900-166). Following the treatment, cells were mixed with low melting point agarose at a volume ratio of 1:50, and 100 μl of aliquots were loaded onto pre-warmed slides. Slides were incubated in pre-chilled lysis solution for 1 h and then in pre-chilled alkaline solution for 1 h. Electrophoresis was run at 22 V in the TBE buffer for 30 min. Comets were stained with CYGREEN dye for 30 min and imaged. 50 individual cells at least per sample were evaluated in duplicates by the CASP Version 1.2.2 analysis tool.

For `COc1cc(Br)c(Nc2nc(-c3c(C)nc4ncccn34)cs2)c(Br)c1` [PTC209, N-(2,6-dibromo-4-methoxyphenyl)-4-(2-methylimidazo[1,2-a]pyrimidin-3-yl)thiazol-2-amine], the “BMI1 and H2AUb levels” value (BMI1 [1]) was “reduced BMI1 and H2AUb in SCC23 and SCC1 cells in a dose-dependent manner”, the “BMI1 expression in tumors” value (BMI1 [2]) was “Reduction of BMI1 expression” and the “CD8+ T cell infiltration in HNSCC” value (CD8+ T cells) was “could induce CD8+ T cell infiltration in tumors”. The IC50 (BMI-1) was 500 nM, the “number of SOX2+ cells” value (SOX2+ CSCs) was “significantly reduced” and the “apoptosis in Tomato+ BMI1+ CSCs” value (HNSCC tumor cells) was “able to induce apoptosis in Tomato^+ CSCs”. The “melanoma resistance to anti-PD1” value (B16 melanoma) was “overcomes melanoma resistance to anti-PD1 by recruiting CD8+ T cells”, the “levels of BMI1 on the promoters of CCL5, CXCL9, CXCL10 and CXCL11” value [3] was “significantly reduced the levels of BMI1 on these promoters in SCC23 cells” and the “levels of H2AUb marks on the promoters of CCL5, CXCL9, CXCL10 and CXCL11” value [3] was “significantly decreased in SCC23 cells”. The Olive tail moment (pH2A.X; alkaline comet assay) was “significantly increased the Olive tail moment in SCC23 and SCC1 cells” and the pH2A.X (pH2A.X; immunostaining and Western blot) was “increased pH2A.X in SCC23 and SCC1 cells”.

Reference: patent publication US20230233566A1, “INHIBITION OF BMI1 ELIMINATES CANCER STEM CELLS AND ACTIVATES ANTITUMOR IMMUNITY” (The Regents of the University of California, priority 2020, published 2023)
